In PubChem BioAssay (NCI) one finds GI50 and TGI data, which are given here for 7 compounds.

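Protocol summary: plate cells (96-well), add compound at 5 concentrations, incubate 48 h, interpolate endpoints linearly. GI50 = concentration required for 50% inhibition of growth. Definition used: TGI = concentration required for complete inhibition of growth.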

The test system of the first assay is A549 NSCLC. Briefly: NCI-60 cell line screen, 48 h.
In the case of `CSc1ccc(C2=Nn3c(nnc3-c3ccc(F)c(Cl)c3)SC2)cc1`, the GI50 is 12.5 µM and the TGI was 29.7 µM.

Turning to `CNC(=O)Nc1ccc(-c2nc(N3CCOCC3)nc3c2cnn3C2CCOCC2)cc1`, the GI50 was 0.204 µM and the TGI stood at 2.71 µM.

For the compound `NCCCCNCCCNC(=O)CNC(=O)CC(O)C(N)CCCC(NC(=O)C(CN)NC(=O)C(O)CNC(=O)CC(N)c1ccc(O)cc1)C(=O)O` (stereo not given), the TGI was > 10 µM.

Consider `N/C(=N\OC(=O)c1ccccc1)C(C(=O)NOC(=O)c1ccccc1)C1CCCCC1` (stereo not given), for which the GI50 was 2.08 µM and the TGI came out at 5.05 µM.

Turning to `CCOc1ccc(N=Nc2ccc3cc(/C(C)=N/NC(=O)/C(C#N)=C\c4ccc(N(CCC#N)CCC#N)cc4)c(=O)oc3c2)cc1`, the TGI was > 10 µM.

For `O=C(O)c1cc[c]([Hg][S]c2ncnc3nc[nH]c23)cc1`, the GI50 is 16.4 µM and the TGI is 33.7 µM.

Turning to `CC(C)(C)OC(=O)NCC(C#N)CNC(=O)OC(C)(C)C`, the TGI is > 100 µM.

In the next assay the test system is EKVX NSCLC. Briefly: NCI-60 cell line screen, 48 h.
Take `CSc1ccc(C2=Nn3c(nnc3-c3ccc(F)c(Cl)c3)SC2)cc1`: the GI50 is 42.1 µM and the TGI was > 100 µM.

Take `CNC(=O)Nc1ccc(-c2nc(N3CCOCC3)nc3c2cnn3C2CCOCC2)cc1`: the GI50 is 0.18 µM and the TGI is 2.42 µM.

In the case of `NCCCCNCCCNC(=O)CNC(=O)CC(O)C(N)CCCC(NC(=O)C(CN)NC(=O)C(O)CNC(=O)CC(N)c1ccc(O)cc1)C(=O)O` (stereo not given), the TGI was > 10 µM.

Turning to `N/C(=N\OC(=O)c1ccccc1)C(C(=O)NOC(=O)c1ccccc1)C1CCCCC1` (stereo not given), the GI50 was 6.1 µM and the TGI was 20.9 µM.

Consider `CCOc1ccc(N=Nc2ccc3cc(/C(C)=N/NC(=O)/C(C#N)=C\c4ccc(N(CCC#N)CCC#N)cc4)c(=O)oc3c2)cc1`, for which the TGI was > 10 µM.

Take `O=C(O)c1cc[c]([Hg][S]c2ncnc3nc[nH]c23)cc1`: the GI50 is 19.2 µM and the TGI is 34.9 µM.

As for `CC(C)(C)OC(=O)NCC(C#N)CNC(=O)OC(C)(C)C`, the TGI was > 100 µM.

The test system of another assay is HCT-15 colon. Briefly: NCI-60 cell line screen, 48 h.
Turning to `CSc1ccc(C2=Nn3c(nnc3-c3ccc(F)c(Cl)c3)SC2)cc1`, the GI50 is 10.1 µM and the TGI is > 100 µM.

In the case of `CNC(=O)Nc1ccc(-c2nc(N3CCOCC3)nc3c2cnn3C2CCOCC2)cc1`, the GI50 was 0.26 µM and the TGI was > 100 µM.

As for `NCCCCNCCCNC(=O)CNC(=O)CC(O)C(N)CCCC(NC(=O)C(CN)NC(=O)C(O)CNC(=O)CC(N)c1ccc(O)cc1)C(=O)O` (stereo not given), the TGI was > 10 µM.

Regarding `N/C(=N\OC(=O)c1ccccc1)C(C(=O)NOC(=O)c1ccccc1)C1CCCCC1` (stereo not given), the GI50 was 9.65 µM and the TGI was determined as 23.5 µM.

Turning to `CCOc1ccc(N=Nc2ccc3cc(/C(C)=N/NC(=O)/C(C#N)=C\c4ccc(N(CCC#N)CCC#N)cc4)c(=O)oc3c2)cc1`, the TGI is > 10 µM.

In the case of `O=C(O)c1cc[c]([Hg][S]c2ncnc3nc[nH]c23)cc1`, the GI50 is 11.2 µM and the TGI was 27.2 µM.

Consider `CC(C)(C)OC(=O)NCC(C#N)CNC(=O)OC(C)(C)C`, for which the TGI is > 100 µM.

Another assay concerns LOX IMVI melanoma. As to the kind of experiment: NCI-60 cell line screen, 48 h.
Take `CSc1ccc(C2=Nn3c(nnc3-c3ccc(F)c(Cl)c3)SC2)cc1`: the GI50 is 10.8 µM and the TGI turned out to be 43.1 µM.

For `CNC(=O)Nc1ccc(-c2nc(N3CCOCC3)nc3c2cnn3C2CCOCC2)cc1`, the GI50 is 0.161 µM and the TGI is > 100 µM.

As for `NCCCCNCCCNC(=O)CNC(=O)CC(O)C(N)CCCC(NC(=O)C(CN)NC(=O)C(O)CNC(=O)CC(N)c1ccc(O)cc1)C(=O)O` (stereo not given), the TGI is > 10 µM.

Regarding `N/C(=N\OC(=O)c1ccccc1)C(C(=O)NOC(=O)c1ccccc1)C1CCCCC1` (stereo not given), the GI50 is 0.343 µM and the TGI was found to be 1.38 µM.

With `CCOc1ccc(N=Nc2ccc3cc(/C(C)=N/NC(=O)/C(C#N)=C\c4ccc(N(CCC#N)CCC#N)cc4)c(=O)oc3c2)cc1`, the TGI was > 10 µM.

As for `O=C(O)c1cc[c]([Hg][S]c2ncnc3nc[nH]c23)cc1`, the GI50 is 0.684 µM and the TGI stood at 17.1 µM.

With `CC(C)(C)OC(=O)NCC(C#N)CNC(=O)OC(C)(C)C`, the TGI is > 100 µM.

The test system of another assay is MALME-3M melanoma. Briefly: NCI-60 cell line screen, 48 h.
For the compound `CSc1ccc(C2=Nn3c(nnc3-c3ccc(F)c(Cl)c3)SC2)cc1`, the GI50 is 2.01 µM and the TGI stood at 10.9 µM.

Regarding `CNC(=O)Nc1ccc(-c2nc(N3CCOCC3)nc3c2cnn3C2CCOCC2)cc1`, the GI50 is 0.0509 µM and the TGI turned out to be 0.44 µM.

Take `NCCCCNCCCNC(=O)CNC(=O)CC(O)C(N)CCCC(NC(=O)C(CN)NC(=O)C(O)CNC(=O)CC(N)c1ccc(O)cc1)C(=O)O` (stereo not given): the TGI was > 10 µM.

As for `N/C(=N\OC(=O)c1ccccc1)C(C(=O)NOC(=O)c1ccccc1)C1CCCCC1` (stereo not given), the GI50 is 10.1 µM and the TGI amounted to 27.5 µM.

`CCOc1ccc(N=Nc2ccc3cc(/C(C)=N/NC(=O)/C(C#N)=C\c4ccc(N(CCC#N)CCC#N)cc4)c(=O)oc3c2)cc1`: the TGI is > 10 µM.

As for `O=C(O)c1cc[c]([Hg][S]c2ncnc3nc[nH]c23)cc1`, the GI50 is 3.35 µM and the TGI was determined as 17.9 µM.

In the case of `CC(C)(C)OC(=O)NCC(C#N)CNC(=O)OC(C)(C)C`, the TGI was > 100 µM.

A further assay concerns MDA-MB-435. As to the kind of experiment: NCI-60 cell line screen, 48 h.
For the compound `CSc1ccc(C2=Nn3c(nnc3-c3ccc(F)c(Cl)c3)SC2)cc1`, the GI50 is 1.5 µM and the TGI was 5.21 µM.

`CNC(=O)Nc1ccc(-c2nc(N3CCOCC3)nc3c2cnn3C2CCOCC2)cc1`: the GI50 was 0.168 µM and the TGI was determined as 0.821 µM.

For `NCCCCNCCCNC(=O)CNC(=O)CC(O)C(N)CCCC(NC(=O)C(CN)NC(=O)C(O)CNC(=O)CC(N)c1ccc(O)cc1)C(=O)O` (stereo not given), the TGI was > 10 µM.

Take `N/C(=N\OC(=O)c1ccccc1)C(C(=O)NOC(=O)c1ccccc1)C1CCCCC1` (stereo not given): the GI50 is 2.21 µM and the TGI came out at 5.59 µM.

In the case of `CCOc1ccc(N=Nc2ccc3cc(/C(C)=N/NC(=O)/C(C#N)=C\c4ccc(N(CCC#N)CCC#N)cc4)c(=O)oc3c2)cc1`, the TGI is > 10 µM.

`O=C(O)c1cc[c]([Hg][S]c2ncnc3nc[nH]c23)cc1`: the GI50 is 3.81 µM and the TGI was determined as 16.8 µM.

Regarding `CC(C)(C)OC(=O)NCC(C#N)CNC(=O)OC(C)(C)C`, the TGI was > 100 µM.

The test system of a further assay is NCI-H226 lung. As to the kind of experiment: NCI-60 cell line screen, 48 h.
On to `CSc1ccc(C2=Nn3c(nnc3-c3ccc(F)c(Cl)c3)SC2)cc1`, for which the GI50 was 18.4 µM and the TGI worked out at 75.7 µM.

With `CNC(=O)Nc1ccc(-c2nc(N3CCOCC3)nc3c2cnn3C2CCOCC2)cc1`, the GI50 is 0.125 µM and the TGI was 4.26 µM.

As for `NCCCCNCCCNC(=O)CNC(=O)CC(O)C(N)CCCC(NC(=O)C(CN)NC(=O)C(O)CNC(=O)CC(N)c1ccc(O)cc1)C(=O)O` (stereo not given), the TGI was > 10 µM.

Regarding `N/C(=N\OC(=O)c1ccccc1)C(C(=O)NOC(=O)c1ccccc1)C1CCCCC1` (stereo not given), the GI50 is 15.8 µM and the TGI stood at 34.1 µM.

With `CCOc1ccc(N=Nc2ccc3cc(/C(C)=N/NC(=O)/C(C#N)=C\c4ccc(N(CCC#N)CCC#N)cc4)c(=O)oc3c2)cc1`, the TGI is > 10 µM.

With `O=C(O)c1cc[c]([Hg][S]c2ncnc3nc[nH]c23)cc1`, the GI50 was > 39 µM and the TGI was > 68 µM.

As to `CC(C)(C)OC(=O)NCC(C#N)CNC(=O)OC(C)(C)C`, the TGI was > 100 µM.

The next assay deals with NCI-H23 lung. Briefly: NCI-60 cell line screen, 48 h.
In the case of `CSc1ccc(C2=Nn3c(nnc3-c3ccc(F)c(Cl)c3)SC2)cc1`, the GI50 was 37.4 µM and the TGI was > 100 µM.

Consider `CNC(=O)Nc1ccc(-c2nc(N3CCOCC3)nc3c2cnn3C2CCOCC2)cc1`, for which the GI50 was 0.267 µM and the TGI is > 100 µM.

As for `NCCCCNCCCNC(=O)CNC(=O)CC(O)C(N)CCCC(NC(=O)C(CN)NC(=O)C(O)CNC(=O)CC(N)c1ccc(O)cc1)C(=O)O` (stereo not given), the TGI was > 10 µM.

For the compound `N/C(=N\OC(=O)c1ccccc1)C(C(=O)NOC(=O)c1ccccc1)C1CCCCC1` (stereo not given), the GI50 was 9.28 µM and the TGI came to 24.1 µM.

Turning to `CCOc1ccc(N=Nc2ccc3cc(/C(C)=N/NC(=O)/C(C#N)=C\c4ccc(N(CCC#N)CCC#N)cc4)c(=O)oc3c2)cc1`, the TGI is > 10 µM.

For `O=C(O)c1cc[c]([Hg][S]c2ncnc3nc[nH]c23)cc1`, the GI50 was 15.5 µM and the TGI was found to be 34.8 µM.

For the compound `CC(C)(C)OC(=O)NCC(C#N)CNC(=O)OC(C)(C)C`, the TGI was > 100 µM.

The next assay deals with OVCAR-5 ovarian. Briefly: NCI-60 cell line screen, 48 h.
In the case of `CSc1ccc(C2=Nn3c(nnc3-c3ccc(F)c(Cl)c3)SC2)cc1`, the GI50 was 39.5 µM and the TGI was > 100 µM.

On to `CNC(=O)Nc1ccc(-c2nc(N3CCOCC3)nc3c2cnn3C2CCOCC2)cc1`, for which the GI50 is 0.194 µM and the TGI worked out at 1.36 µM.

`NCCCCNCCCNC(=O)CNC(=O)CC(O)C(N)CCCC(NC(=O)C(CN)NC(=O)C(O)CNC(=O)CC(N)c1ccc(O)cc1)C(=O)O` (stereo not given): the TGI was > 10 µM.

In the case of `N/C(=N\OC(=O)c1ccccc1)C(C(=O)NOC(=O)c1ccccc1)C1CCCCC1` (stereo not given), the GI50 is 14.6 µM and the TGI was found to be 28.2 µM.

`CCOc1ccc(N=Nc2ccc3cc(/C(C)=N/NC(=O)/C(C#N)=C\c4ccc(N(CCC#N)CCC#N)cc4)c(=O)oc3c2)cc1`: the TGI is > 10 µM.

For `O=C(O)c1cc[c]([Hg][S]c2ncnc3nc[nH]c23)cc1`, the GI50 is 14.1 µM and the TGI is 29 µM.

Turning to `CC(C)(C)OC(=O)NCC(C#N)CNC(=O)OC(C)(C)C`, the TGI was > 100 µM.

The next assay has as its system SNB-19 CNS. As to the kind of experiment: NCI-60 cell line screen, 48 h.
As for `CSc1ccc(C2=Nn3c(nnc3-c3ccc(F)c(Cl)c3)SC2)cc1`, the GI50 was 10.7 µM and the TGI stood at 32.7 µM.

`CNC(=O)Nc1ccc(-c2nc(N3CCOCC3)nc3c2cnn3C2CCOCC2)cc1`: the GI50 was 0.396 µM and the TGI is > 100 µM.

`NCCCCNCCCNC(=O)CNC(=O)CC(O)C(N)CCCC(NC(=O)C(CN)NC(=O)C(O)CNC(=O)CC(N)c1ccc(O)cc1)C(=O)O` (stereo not given): the TGI is > 10 µM.

Consider `N/C(=N\OC(=O)c1ccccc1)C(C(=O)NOC(=O)c1ccccc1)C1CCCCC1` (stereo not given), for which the GI50 is 15.4 µM and the TGI amounted to 39.1 µM.

On to `CCOc1ccc(N=Nc2ccc3cc(/C(C)=N/NC(=O)/C(C#N)=C\c4ccc(N(CCC#N)CCC#N)cc4)c(=O)oc3c2)cc1`, for which the TGI was > 10 µM.

Turning to `O=C(O)c1cc[c]([Hg][S]c2ncnc3nc[nH]c23)cc1`, the GI50 is > 76.7 µM and the TGI was > 100 µM.

As for `CC(C)(C)OC(=O)NCC(C#N)CNC(=O)OC(C)(C)C`, the TGI is > 100 µM.
